Measurements: US9163020B2, “Azaindole compounds, synthesis thereof, and methods of using the same” (Global Alliance for TB Drug Development, priority 2013, dated 2015)
Converted amounts (≈) assume the structure as drawn. Read-outs that look alike come from different tables or passages of the source.

Tests used:
[1] = molecular target: hERG (Homo sapiens, UniProt Q12809)
Description: Compounds were tested on voltage-gated ion channels using the medium-throughput electrophysiology IonWorks™ device. […] For carrying out the experiment, a boat in the “Cells” position of the IonWorks™ instrument was loaded with the cell suspension, and a 96-well PBS destination plate was placed in the “Plate 1” position. A 384-well PatchPlate™ was placed in the IonWorks™ plenum and held in position using the plenum clamp. From this point the experiment progress is automated and ultimately reports a non-cumulative concentration-effect curve for test compound.

[2] = in vitro; assay type: in vitro ADME; settings: pH 7.4; mouse microsomes; read-out: Mo micrsomal Clint
Description: (§1) 1 μM compound was incubated with 1 mg/mL of microsomes (Pooled HLM/MLM with 20 mg/ml protein cone.) at 37° C. in 166 μL of buffer (100 mM phosphate buffer, pH-7.4) containing 2 mM NADPH solution. 20 μL of incubation mix was quenched with 4 volumes chilled acetonitrile at different time points i.e. 0, 2, 5, 10, 20 and 30 min in a fresh 96 well plate. The quench plate was centrifuged at 4000 rpm for 15 min. 30 μL of supernatant was diluted to 300 μL with 50% acetonitrile in water and substrate depletion was analyzed using LC-MS/MS.

[3] = assay type: in vitro ADME
Description: as §1, with “20 μL of incubation mix was quenched with 4 volumes chilled acetonitrile at different time points i.e. 0, 2, 5, 10, 20 and 30 min in a fresh 96 well plate.” left out

[4] = in vivo; settings: BALB/c, mouse, po, 50 mg/kg
[5] = Description: Viability of cryopreserved hepatocytes was determined using trypan blue and the cell conc. was adjusted to 10^6 cells per mL with buffer (KHB buffer). 1 μM compound (in Acetonitrile; 0.01% DMSO) was incubated with 500 μL of hepatocyte cells (1 million cells per mL) in a NUNC plate. […] Supernatants were analyzed using LC-MS/MS for substrate depletion.
[6] = in vivo; settings: BALB/c, mouse, po
[7] = in vivo; settings: po, 30 mg/kg
Description: PK of azaindoles compounds was performed in mice (healthy and infected) and rats. Mice were pretreated with 100 mg/kg ABT two hours prior to the compound administration. PK data from healthy mice was used to design the dosing regimen for the efficacy study while, information from infected mice was used for the PK-PD analysis.
All oral administration was performed as suspensions in 0.5% HPMC, and 0.1% Tween 80. […] All blood samples were collected via sapheneous vein into Microvette CB300® (Starstedt, Germany) tubes coated with Lithium-Heparin, and plasma was prepared from the collected blood by centrifugation.
One mg/mL stock solution of each compound was prepared in Dimethylsulfoxide (DMSO) and diluted two-fold with acetonitrile. A sixteen point calibration curve was utilized for each analyte, and the standard curves ranged from 0.001 to 40 μg/mL. Plasma/BAL samples were precipitated by adding chilled acetonitrile (1:10 v/v) containing carbamazepine as internal standard (250 ng/mL). Samples were vortexed, and centrifuged at 4000 rpm for 30 min at 10° C. The resulting supernatant was mixed with mobile phase (50% acetonitrile in water with 0.1% formic acid). […] of sample was injected on to a liquid chromatographic system (Waters-ACQUTY UPLC) coupled to triple quadrupole mass spectrometer (Waters-ACQUTY-TQD; MS/MS). Samples were acquired in positive ion mode and detected by multiple reaction monitoring (MRM). Concentrations of the analyte were determined from a standard curve obtained by plotting known concentrations of the analyte against peak area ratios (analyte/internal standard peak response).
PK analysis of the plasma concentration-time relationships were performed with WinNonlin Phoenix Software (version 6.2; Pharsight, USA). […] The maximum concentration of drug in plasma (Cmax), time to Cmax (Tmax), elimination half-life (t1/2), and AUC from time zero to infinity (AUC0-∞) were estimated. […] Minimum of three sample points in the terminal slope were used to estimate to calculate half-life.

[8] = tested on: Mycobacterium tuberculosis (Mtb) H37Rv; assay: Mtb minimal bactericidal concentration (MBC), plating from MIC plates; assay type: cell-based
Description: Aliquots from sample wells (MIC and higher) from the MIC plates were diluted 1:10 and plated on 7H10 agar plates. Plates were incubated at 37° C. for 3-4 weeks, CFU was enumerated.

[9] = pH 7.4
Description: Octanol-water partition coefficient (Log D) based on the shake-flask principle has been measured as follows. The aqueous solution used was 10 mM sodium phosphate buffer pH 7.4. 20 μL of 10 mM compound dissolved in DMSO was taken in glass vial plate. DMSO was removed using GeneVac. 435 μL of octanol was added using Tomtec, stirred for 5 min to dissolve. Further mixing was done by inversion for 5 h at 25° C., subsequently centrifuged for 30 min at 3000 RPM. LC/UV/APPI/MS quantitation of both aqueous and octanol layers was carried out. Log D value was determined according to the following equation.

[10] = in vitro; assay type: in vitro ADME; settings: plasma
Description: Protein binding is measured using the equilibrium dialysis technique. Compound is added to 10% plasma giving a concentration of 20 μM and dialysed with isotonic buffer for 18 hours at 37° C. The plasma and buffer solutions are analysed using generic LCUVMS and the first apparent binding constant for the compound derived. The binding constant is then used to determine the % free in 100% plasma.

[11] = tested on: Mycobacterium tuberculosis (Mtb) H37Rv ATCC 27294; assay: microbe, parasite or virus in culture; assay type: cell-based; settings: Mycobacterium tuberculosis
[12] = in vivo; settings: male, Wistar, rat, po, 100 mg/kg
[13] = tested on: panel of human targets and cardiac channels
[14] = tested on: hypoxia induced non-replicating persistent (NRP) Mtb cells; assay: Activity against hypoxia induced non-replicating persistent (NRP) Mtb (HBC, Wayne model); assay type: cell-based, Mycobacterium tuberculosis; settings: for Mtb H37Rv HBC: Table 5
[15] = tested on: A549 human lung carcinoma cells; assay type: cell-based
Description: The in vitro cytotoxicity of compounds were measured against A549 human lung carcinoma cells as describedin Eakin et. al (2012). Briefly, A549 cells (ATCC) were grown in RPMI medium (GIBCO-BRL) containing 10% heat-inactivated fetal bovine serum (GIBCO-BRL) and 1 mM L-glutamine (GIBCO-BRL) at a density of 1,000 cells/well. After incubation of the cells with compound in a CO2 atmosphere at 37° C. for 72 hours, cell viability was determined following addition of […] of resazurin solution (Sigma), by measuring fluorescence (excitation at 535 nm, emission at 590 nm) using a fluorimeter.

[16] = tested on: CYP1A2, CYP2C9, CYP2C19, CYP2D6, CYP3A4; settings: human
[17] = physchem; assay type: physicochemical; settings: 25 °C, pH 7.4, aqueous buffer, thermodynamic from solid
Description: Solubility of the compounds in 0.1M phosphate buffer, pH 7.4 was determined as described, Glyburide was used as QC standard in the assay. Briefly, compounds were diluted in ACN/water (40:60) to desired concentration, samples were dried using Genevac for 4 hrs and subsequently 800 μl of buffer was added. Compound containing plates were stirred for 24 hrs at 25° C. on Eppendorf Thermomix R at 750 rpm. Finally, compound concentration was estimated using UV and MS analysis.

[18] = Table 5, read-out: Mtb H37Rv MBC
[19] = Table 5, read-out: Mtb H37Rv MIC

Sequence of hERG (Q12809 whole entry): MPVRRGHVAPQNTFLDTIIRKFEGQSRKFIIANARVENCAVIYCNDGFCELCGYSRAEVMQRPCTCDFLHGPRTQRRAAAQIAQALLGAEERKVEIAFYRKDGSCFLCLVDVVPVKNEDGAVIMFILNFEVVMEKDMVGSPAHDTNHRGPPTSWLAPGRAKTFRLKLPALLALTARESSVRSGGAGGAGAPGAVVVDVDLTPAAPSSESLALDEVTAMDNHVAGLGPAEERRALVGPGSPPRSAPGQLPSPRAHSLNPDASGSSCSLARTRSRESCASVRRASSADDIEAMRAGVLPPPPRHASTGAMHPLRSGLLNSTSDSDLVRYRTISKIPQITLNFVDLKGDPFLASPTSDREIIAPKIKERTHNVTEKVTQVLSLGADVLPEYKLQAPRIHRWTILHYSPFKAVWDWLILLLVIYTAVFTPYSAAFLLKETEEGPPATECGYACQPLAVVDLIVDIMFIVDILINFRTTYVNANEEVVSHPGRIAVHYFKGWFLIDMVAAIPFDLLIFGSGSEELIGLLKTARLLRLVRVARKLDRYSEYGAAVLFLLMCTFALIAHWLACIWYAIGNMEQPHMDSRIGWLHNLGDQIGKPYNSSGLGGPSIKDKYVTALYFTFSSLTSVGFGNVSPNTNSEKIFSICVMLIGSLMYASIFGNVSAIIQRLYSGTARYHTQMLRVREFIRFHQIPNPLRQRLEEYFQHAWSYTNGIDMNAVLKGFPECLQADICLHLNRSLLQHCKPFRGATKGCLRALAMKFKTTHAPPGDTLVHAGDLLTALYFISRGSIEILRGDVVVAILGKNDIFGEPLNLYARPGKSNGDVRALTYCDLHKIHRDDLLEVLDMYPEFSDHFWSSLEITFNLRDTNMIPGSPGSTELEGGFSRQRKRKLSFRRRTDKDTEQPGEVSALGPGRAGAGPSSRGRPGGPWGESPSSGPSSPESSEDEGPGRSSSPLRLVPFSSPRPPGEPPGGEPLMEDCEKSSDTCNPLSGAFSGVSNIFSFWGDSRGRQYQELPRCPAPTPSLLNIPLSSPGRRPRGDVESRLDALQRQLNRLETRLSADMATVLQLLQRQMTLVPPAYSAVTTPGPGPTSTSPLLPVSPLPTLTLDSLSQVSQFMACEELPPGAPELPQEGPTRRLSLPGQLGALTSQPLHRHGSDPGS

SMILES: COc1ncnc(Cn2cc(C(=O)NCC3CC3)c3ncccc32)c1C [Compound 4, N-(cyclopropylmethyl)-1-((6-methoxy-5-methylpyrimidin-4-yl)methyl)-1H-pyrrolo[3,2-b]pyridine-3-carboxamide]
- hERG [1]: >33 µM
- microsomal CLint [2]: 180 µL/min/mg
- predicted clearance ([3]; human, rat): 4-18 % of liver blood flow (% LBF)
- AUC(0-inf) [4]: 200 ± 101 µM·h
- Cmax [4]: 38.9 ± 15.2 µM
- Tmax [4]: 4.5 ± 2.78 h
- half-life [4]: 2.23 ± 0.35 h
- Human CLpred hepatocytes (% LBF) [5]: 4.3 % LBF
- Rat CLpred hepatocytes (% LBF) [5]: 13 % LBF
- AUC [6]: 200 to 700 µM·h
- AUC(0-inf) ([6]; 30 mg/kg): 227 ± 28.9 µM·h
- Cmax ([6]; 30 mg/kg): 17.4 ± 1.76 µM
- Tmax ([6]; 30 mg/kg): 5.67 ± 2.31 h
- half-life ([6]; 30 mg/kg): 3.85 ± 0.54 h
- AUC(0-inf) ([7]; Wistar, rat, in vivo): 22.9 µM·h
- Cmax ([7]; Wistar, rat, in vivo): 2.35 µM
- Tmax ([7]; Wistar, rat, in vivo): 3 h
- half-life ([7]; Wistar, rat, in vivo): 3.64 h

SMILES: COc1ncnc(Cn2cc(C(=O)NCCF)c3ncc(C)cc32)c1C [Compound 8, N-(2-fluoroethyl)-1-((6-methoxy-5-methylpyrimidin-4-yl)methyl)-6-methyl-1H-pyrrolo[3,2-b]pyridine-3-carboxamide]
- MBC ([8]; Table 4, read-out: Mtb MBC): < 0.39 µM
- logD [9]: 2.6
- hERG [1]: >33 µM
- microsomal CLint [2]: 108 µL/min/mg
- Human CLpred microsomes (% LBF) ([3]; pH 7.4): 10.1 % LBF
- fraction unbound at 18 h, 20 μM ([10]; human): 0.05 to 0.22
- Human PPB (% free) [10]: 5 % free
- MIC ([11]; Table 1, read-out: Mtb MIC): < 0.53 µM
- MIC ([11]; Table 4, read-out: Mtb MIC): < 0.39 µM
- AUC(0-inf) [12]: 98.4 ± 31.9 µM·h
- Cmax [12]: 11.9 ± 3 µM
- Tmax [12]: 1.5 ± 0.6 h
- half-life [12]: 7.2 ± 1.3 h
- Secondary pharmacology hits IC50 [13]: No significant hits
- in vitro safety profiling [13]: no major safety liabilities
- Human CLpred hepatocytes (% LBF) ([5]; 1 μM): 4.3 % LBF
- Rat CLpred hepatocytes (% LBF) ([5]; 1 μM): 14.9 % LBF
- Mtb HBC ([14]; hypoxic conditions, Wayne model, Table 4): 100 µM
- MMIC (A549) ([15]; human, 72 h): >100 µM
- AUC(0-inf) ([7]; BALB/c, mouse): 64.2 µM·h
- Cmax ([7]; BALB/c, mouse): 13.4 µM
- Tmax ([7]; BALB/c, mouse): 2 h
- half-life ([7]; BALB/c, mouse): 4.15 h
- AUC(0-inf) ([7]; Wistar, rat, in vivo): 29.3 µM·h
- Cmax ([7]; Wistar, rat, in vivo): 3.69 µM
- Tmax ([7]; Wistar, rat, in vivo): 4.5 h
- half-life ([7]; Wistar, rat, in vivo): 3.58 h
- CYP inhibition [16]: >50 µM
- solubility [17]: 4 µM (≈ 1.43 µg/mL)

SMILES: COc1ncnc(Cn2cc(C(=O)NCC(F)F)c3ncc(C)cc32)c1C [Compound 30, N-(2,2-difluoroethyl)-1-((6-methoxy-5-methylpyrimidin-4-yl)methyl)-6-methyl-1H-pyrrolo[3,2-b]pyridine-3-carboxamide]
- MIC ([11]; Table 1, read-out: Mtb MIC): < 0.391 µM
- AUC(0-inf) [12]: 23.3 ± 11.7 µM·h
- Cmax [12]: 3.4 ± 2 µM
- Tmax [12]: 3.3 ± 2.3 h
- half-life [12]: 3.3 ± 1.1 h

SMILES: Cc1ccc(Cn2cc(C(=O)NCCF)c3ncccc32)c(C)c1 [Compound 31, 1-(2,4-dimethylbenzyl)-N-(2-fluoroethyl)-1H-pyrrolo[3,2-b]pyridine-3-carboxamide]
- MBC [8, 18]: 3.12 to 6.25 µM (≈ 1.02 to 2.03 µg/mL)
- MIC ([11]; Table 1, read-out: Mtb MIC): 1.56 µM (≈ 0.508 µg/mL)
- MIC [11, 19]: 1.56 to 3.12 µM (≈ 0.508 to 1.02 µg/mL)
- Mtb H37Rv HBC [14]: 12.5 to 25 µM
- MMIC (A549) ([15]; human, 72 h): >82 µM

SMILES: COc1cccc(F)c1Cn1cc(C(=O)NCC2CC2)c2ncccc21 [Compound 32, N-(cyclopropylmethyl)-1-(2-fluoro-6-methoxybenzyl)-1H-pyrrolo[3,2-b]pyridine-3-carboxamide]
- MBC [8, 18]: 1.56 to 6.25 µM (≈ 0.551 to 2.21 µg/mL)
- MIC ([11]; Table 1, read-out: Mtb MIC): 1.56 µM (≈ 0.551 µg/mL)
- MIC [11, 19]: 1.56 to 3.12 µM (≈ 0.551 to 1.1 µg/mL)
- Mtb H37Rv HBC [14]: >200 µM
- MMIC (A549) ([15]; Table 5): >100 µM

SMILES: Cc1cnc2c(C(=O)NCCO)cn(Cc3ncnc(N(C)C)c3C)c2c1 [Compound 34, 1-((6-(dimethylamino)-5-methylpyrimidin-4-yl)methyl)-N-(2-hydroxyethyl)-6-methyl-1H-pyrrolo[3,2-b]pyridine-3-carboxamide]
- MIC ([11]; Table 1, read-out: Mtb MIC): < 0.39 µM
- AUC(0-inf) [12]: 166 ± 43.9 µM·h
- Cmax [12]: 31.5 ± 3 µM
- Tmax [12]: 2 h
- half-life [12]: 4.6 h

SMILES: Cc1cnc2c(C(=O)NCCF)cn(Cc3ncc(C)nc3C)c2c1 [Compound 45, 1-((3,5-dimethylpyrazin-2-yl)methyl)-N-(2-fluoroethyl)-6-methyl-1H-pyrrolo[3,2-b]pyridine-3-carboxamide]
- MIC ([11]; Table 1, read-out: Mtb MIC): < 0.39 µM

SMILES: Cc1cnc2c(C(=O)NCC(F)F)cn(Cc3ncc(C)nc3C)c2c1 [Compound 46, N-(2,2-difluoroethyl)-1-((3,5-dimethylpyrazin-2-yl)methyl)-6-methyl-1H-pyrrolo[3,2-b]pyridine-3-carboxamide]
- MIC ([11]; Table 1, read-out: Mtb MIC): < 0.39 µM

SMILES: NNC(=O)c1ccncc1 [Isoniazid]
- reduction in the bacterial CFU of NRP Mtb [14]: no reduction
